From US20220016196A1, “Aloe Based Compositions Comprising Polysaccharides and Polyphenols for Regulation of Homeostasis of Immunity” (Unigen, Inc., priority 2020, published 2022)

System: C Reactive Protein (CRP)
Assay: LPS-induced acute lung injury, BAL C Reactive Protein ELISA
Type: in vivo, rat
Details: rats
Method: The study was designed to evaluate the direct impact of an Aloe-based composition (UP360) made in the Example 9 in alleviating LPS-induced acute lung injury administered orally at 500 mg/kg and 250 mg/kg. […] In this study, we treated rats with the test materials orally for 7 days before model induction with LPS. On the 8th day, an hour after oral treatment, LPS was instilled intratracheally (i.t.) at 10 mg/kg dissolved in 0.1 mL/100 g PBS to each rat. The normal control rats received the same volume i.t. PBS only.
We sacrificed surviving animals 24 hours after intratracheal LPS administration to the rats. At necropsy, collected bronchoalveolar lavage (BAL) by intratracheal injection of 1.5 mL PBS into the right lobe followed by gentle aspiration at least 3 times. Pooled recovered fluid, centrifuged at 1500 rpm for 10 min at 4 ° C., and was used to measure cytokines (e.g. IL-6) and pulmonary protein levels. […]
The presence of C Reactive Protein (CRP) in rat BAL diluted 1:1,000 was measured using the C Reactive Protein (PTX1) Rat ELISA kit from Abcam (product #: ab108827) as follows: 1:1,000 diluted BAL was added to a microplate coated with CRP antibody. […] After developing for 10 minutes at room temperature, a stop solution was added, and the absorbance was read at 450 nm. The concentration of CRP was calculated based on the absorbance readings of a CRP standard curve.

Question: What does the source list for `CCCC(=O)[O-].[Na+]` [Sodium Butyrate]?
Answer: BAL CRP level, Mean ± SD (LPS 10 mg/kg i.t., 24 hours post, oral, 500 mg/kg): 20093.5 ± 8826.1 pg/mL; reduction of BAL CRP vs vehicle (LPS i.t., 500 mg/kg oral): minimal changes
